Laboratory results from patent publication US11161862B2, “Phosphonium-ion tethered tetracycline drugs for treatment of cancer” (Oxford University Innovation Limited, priority 2017, dated 2021).
Counter-ions that a name gives are not always drawn.

Tested on: MDA-231 cancer cells
Test: Inhibition of proliferation assay: cell confluence (IncuCyte live cell imaging)
Type: cell-based
Conditions: MDA-231 cells, IncuCyte imaging every 3 h over 4-5 d, relative confluence normalised to time zero
Source text: Inhibition of Proliferation Assay
The confluence value is a surrogate for cell proliferation and growth. The value is expressed as a percent confluence, which represents the fraction of culture dish-surface that is occupied by cells. As the number of cells in the dish increases over time due to proliferation, so will their coverage of that surface increase. Expansion of the cell population on the cell culture-dish surface and confluence have mostly a linear relationship until the cells on the plate surface begin to reach saturation or maximum density.
Confluence is determined based on image analysis. Image based software can identify objects in the image field base on changes to pixel density in a grey scale image. The software can then assign a mask to those pixels within the object. Objects can be ‘gated’ out based on size and shape. To determine cell confluence, images of cells are first masked as objects. The surface area of the image that is masked is measured and compared to the total surface area of the culture dish surface to obtain a percent confluence.
MDA-231 cancer cells were obtained from ATCC. Cells were cultured in Dulbecco's Modified Eagle Medium (DMEM) supplemented with 10% Fetal Bovine Serum (FBS), 2 mM Glutamax, 1 mM Non Essential Amino Acid (NEAA) solution and 1 mM sodium pyruvate. […] Final DMSO concentrations were […]. Images were acquired with an IncuCyte Live Cell Imaging microscopy (Essen Bioscience) at every 3 h under cell culture conditions with 10× objective over 4-5 d. Cell confluence was calculated from one field of view per well using the IncuCyte in-built algorithm. Relative confluence values were obtained by normalising each value to the time zero value in each sample.

Row | SMILES | % Confluence (concentration 10 μM) [%] | % Confluence (concentration 50 μM) [%]
1 | C[C@H]1c2ccc(NC(=O)CCCCCCC[P+](c3ccccc3)(c3ccccc3)c3cnn(C)c3)c(O)c2C(=O)C2=C(O)[C@]3(O)C(=O)C(C(N)=O)=C(O)[C@@H](N(C)C)[C@@H]3[C@@H](O)[C@@H]21.[Cl-] [Example 8, (7-{[(5R,5aR,6S,6aR,7S,10aS)-9-carbamoyl-7-(dimethylamino)-1,6,8,10a,11-pentahydroxy-5-methyl-10,12-dioxo-5,5a,6,6a,7,10,10a,12-octahydrotetracen-2-yl]carbamoyl}heptyl)(1-methyl-1H-pyrazol-4-yl)diphenylphosphonium chloride] | 45.6 | 
2 | C[C@H]1c2ccc(NC(=O)CCCCCCCC[P+](c3ccccc3)(c3ccccc3)c3cnn(C)c3)c(O)c2C(=O)C2=C(O)[C@]3(O)C(=O)C(C(N)=O)=C(O)[C@@H](N(C)C)[C@@H]3[C@@H](O)[C@@H]21.[Cl-] [Example 9, (8-{[(5R,5aR,6S,6aR,7S,10aS)-9-carbamoyl-7-(dimethylamino)-1,6,8,10a,11-pentahydroxy-5-methyl-10,12-dioxo-5,5a,6,6a,7,10,10a,12-octahydrotetracen-2-yl]carbamoyl}octyl)(1-methyl-1H-pyrazol-4-yl)diphenylphosphonium chloride] | 55.5 | 
3 | C[C@H]1c2cccc(O)c2C(=O)C2=C(O)[C@]3(O)C(=O)C(C(N)=O)=C(O)[C@@H](N(C)C)[C@@H]3[C@@H](O)[C@@H]21 [Doxycycline, reference compound] | 98.7 | 91
4 | C[C@H]1c2ccc(NC(=O)CCCCCCCCCCC[P+](C)(c3ccccc3)c3ccccc3)c(O)c2C(=O)C2=C(O)[C@]3(O)C(=O)C(C(N)=O)=C(O)[C@@H](N(C)C)[C@@H]3[C@@H](O)[C@@H]21.[Cl-] [Example 5, (11-{[(5R,5aR,6S,6aR,7S,10aS)-9-carbamoyl-7-(dimethylamino)-1,6,8,10a,11-pentahydroxy-5-methyl-10,12-dioxo-5,5a,6,6a,7,10,10a,12-octahydrotetracen-2-yl]carbamoyl}undecyl)(methyl)diphenylphosphonium chloride] | 24.9 | 
5 | C[C@H]1c2ccc(NC(=O)CCCCCCC[P+](C)(C)C)c(O)c2C(=O)C2=C(O)[C@]3(O)C(=O)C(C(N)=O)=C(O)[C@@H](N(C)C)[C@@H]3[C@@H](O)[C@@H]21.[Cl-] [Example 4, (7-{[(5R,5aR,6S,6aR,7S,10aS)-9-carbamoyl-7-(dimethylamino)-1,6,8,10a,11-pentahydroxy-5-methyl-10,12-dioxo-5,5a,6,6a,7,10,10a,12-octahydrotetracen-2-yl]carbamoyl}heptyl)trimethylphosphonium chloride] | 111.8 | 
6 | C[C@H]1c2ccc(NC(=O)CCCCCCCCCCC[P+](c3ccccc3)(c3ccccc3)c3cnn(C)c3)c(O)c2C(=O)C2=C(O)[C@]3(O)C(=O)C(C(N)=O)=C(O)[C@@H](N(C)C)[C@@H]3[C@@H](O)[C@@H]21.[Cl-] [Example 10, (11-{[(5R,5aR,6S,6aR,7S,10aS)-9-carbamoyl-7-(dimethylamino)-1,6,8,10a,11-pentahydroxy-5-methyl-10,12-dioxo-5,5a,6,6a,7,10,10a,12-octahydrotetracen-2-yl]carbamoyl}undecyl)(1-methyl-1H-pyrazol-4-yl)diphenylphosphonium chloride] | 12.4 | 
7 | C[C@H]1c2ccc(NC(=O)CCCCCCCCCC[P+](c3ccccc3)(c3ccccc3)c3cnn(C)c3)c(O)c2C(=O)C2=C(O)[C@]3(O)C(=O)C(C(N)=O)=C(O)[C@@H](N(C)C)[C@@H]3[C@@H](O)[C@@H]21.[Cl-] [Example 12, (10-{[(5R,5aR,6S,6aR,7S,10aS)-9-carbamoyl-7-(dimethylamino)-1,6,8,10a,11-pentahydroxy-5-methyl-10,12-dioxo-5,5a,6,6a,7,10,10a,12-octahydrotetracen-2-yl]carbamoyl}decyl)(1-methyl-1H-pyrazol-4-yl)diphenylphosphonium chloride] | 45.4 | 
8 | C[C@H]1c2ccc(NC(=O)CCCCCCC[P+](C)(c3ccccc3)c3ccccc3)c(O)c2C(=O)C2=C(O)[C@]3(O)C(=O)C(C(N)=O)=C(O)[C@@H](N(C)C)[C@@H]3[C@@H](O)[C@@H]21.[Cl-] [Example 2, (7-{[(5R,5aR,6S,6aR,7S,10aS)-9-carbamoyl-7-(dimethylamino)-1,6,8,10a,11-pentahydroxy-5-methyl-10,12-dioxo-5,5a,6,6a,7,10,10a,12-octahydrotetracen-2-yl]carbamoyl}heptyl)(methyl)diphenylphosphonium chloride] | 91.7 | 
9 | C[C@H]1c2ccc(NC(=O)CCCCCCCCC[P+](c3ccccc3)(c3ccccc3)c3cnn(C)c3)c(O)c2C(=O)C2=C(O)[C@]3(O)C(=O)C(C(N)=O)=C(O)[C@@H](N(C)C)[C@@H]3[C@@H](O)[C@@H]21.[Cl-] [Example 11, (9-{[(5R,5aR,6S,6aR,7S,10aS)-9-carbamoyl-7-(dimethylamino)-1,6,8,10a,11-pentahydroxy-5-methyl-10,12-dioxo-5,5a,6,6a,7,10,10a,12-octahydrotetracen-2-yl]carbamoyl}nonyl)(1-methyl-1H-pyrazol-4-yl)diphenylphosphonium chloride] | 70.1 | 
10 | Cc1cccc([P+](CCCCCCCCCCCC(=O)Nc2ccc3c(c2O)C(=O)C2=C(O)[C@]4(O)C(=O)C(C(N)=O)=C(O)[C@@H](N(C)C)[C@@H]4[C@@H](O)[C@@H]2[C@H]3C)(c2cccc(C)c2)c2cccc(C)c2)c1.[Cl-] [Example 7, (11-{[(5R,5aR,6S,6aR,7S,10aS)-9-carbamoyl-7-(dimethylamino)-1,6,8,10a,11-pentahydroxy-5-methyl-10,12-dioxo-5,5a,6,6a,7,10,10a,12-octahydrotetracen-2-yl]carbamoyl}undecyl)tris(3-methylphenyl)phosphonium chloride] | 29.4 | 
11 | COc1ccc([P+](CCCCCCCCCCCC(=O)Nc2ccc3c(c2O)C(=O)C2=C(O)[C@]4(O)C(=O)C(C(N)=O)=C(O)[C@@H](N(C)C)[C@@H]4[C@@H](O)[C@@H]2[C@H]3C)(c2ccc(OC)cc2)c2ccc(OC)cc2)cc1 [Example 1, (11-{[(5R,5aR,6S,6aR,7S,10aS)-9-carbamoyl-7-(dimethylamino)-1,6,8,10a,11-pentahydroxy-5-methyl-10,12-dioxo-5,5a,6,6a,7,10,10a,12-octahydrotetracen-2-yl]carbamoyl}undecyl)tris(4-methoxyphenyl)phosphonium formate] | 17 | 
12 | CC(C)[P+](CCCCCCCCCCCC(=O)Nc1ccc2c(c1O)C(=O)C1=C(O)[C@]3(O)C(=O)C(C(N)=O)=C(O)[C@@H](N(C)C)[C@@H]3[C@@H](O)[C@@H]1[C@H]2C)(c1ccccc1)c1ccccc1 [Example 13, (11-{[(5R,5aR,6S,6aR,7S,10aS)-9-carbamoyl-7-(dimethylamino)-1,6,8,10a,11-pentahydroxy-5-methyl-10,12-dioxo-5,5a,6,6a,7,10,10a,12-octahydrotetracen-2-yl]carbamoyl}undecyl)diphenyl(propan-2-yl)phosphonium chloride] | 35.1 | 
13 | C[C@H]1c2ccc(NC(=O)CCCCCCCCCCC[P+](C)(C)C)c(O)c2C(=O)C2=C(O)[C@]3(O)C(=O)C(C(N)=O)=C(O)[C@@H](N(C)C)[C@@H]3[C@@H](O)[C@@H]21.[Cl-] [Example 6, (11-{[(5R,5aR,6S,6aR,7S,10aS)-9-carbamoyl-7-(dimethylamino)-1,6,8,10a,11-pentahydroxy-5-methyl-10,12-dioxo-5,5a,6,6a,7,10,10a,12-octahydrotetracen-2-yl]carbamoyl}undecyl)trimethylphosphonium chloride] | 57.7 | 
14 | C[C@H]1c2ccc(NC(=O)CCCCCCC[P+](C)(C)c3ccccc3)c(O)c2C(=O)C2=C(O)[C@]3(O)C(=O)C(C(N)=O)=C(O)[C@@H](N(C)C)[C@@H]3[C@@H](O)[C@@H]21.[Cl-] [Example 3, (7-{[(5R,5aR,6S,6aR,7S,10aS)-9-carbamoyl-7-(dimethylamino)-1,6,8,10a,11-pentahydroxy-5-methyl-10,12-dioxo-5,5a,6,6a,7,10,10a,12-octahydrotetracen-2-yl]carbamoyl}heptyl)dimethylphenylphosphonium chloride] | 62.5 | 
